Experimental data as given in patent US20230018765A1, “A 19-NOR C3,3-DISUBSTITUTED C21-N-PYRAZOLYL STEROID AND METHODS OF USE THEREOF” (Sage Therapeutics, Inc., priority 2019, published 2023).

What was measured:
[1] = test system: adult patients diagnosed with MDD (MADRS total score ≥32 and a HAM-D total score ≥22); assay: double-blind, randomized placebo-controlled Phase 3 study of Compound 1 in Major Depressive Disorder (efficacy by HAM-D total score, safety and tolerability); assay type: in vivo, human; details: for overall incidence of patients who experienced AEs: 14-day treatment period and 28-day follow up, placebo 48.9%; for AE incidence: Fatigue: placebo 2.6%; for AE incidence: Sedation / subjects having treatment emergent AEs leading to study drug discontinuation: placebo 3.2%; for AE incidence: Dizziness: placebo 3.7%; for AE incidence: Somnolence: placebo 4.2%; for AE incidence: Nausea: placebo 4.7%; for AE incidence: Diarrhea: placebo 5.3%; for AE incidence: Headache: treatment period and 28-day follow up, placebo 7.4%
Experimental: Compound 1 was evaluated in a double-blind, randomized placebo-controlled Phase 3 study in Major Depressive Disorder (MDD). The evaluated the efficacy, safety and pharmacokinetics of Compound 1 in adult patients diagnosed with MDD (MADRS total score ≥32 and a HAM-D total score ≥22).
Compound 1 was administered to a patient, either in 20 mg daily doses once a day for 14 days or 30 mg once a day for 14 days.

subjects with MDD [2] = assay: HAM-D course after a Compound 1 treatment cycle (response/remission at Day 15, HAM-D at Day 42); assay type: in vivo, human
subjects with MDD [3] = assay: Phase 2 study in subjects with MDD / previous clinical trials of Compound 1
GABAA receptors = assay: modulation of GABAA receptors; details: synaptic and extrasynaptic GABAA receptors
[4] = among subjects achieving remission or response at Day 15, Day 42

SMILES: C[C@@]1(O)CC[C@H]2[C@H](CC[C@@H]3[C@@H]2CC[C@]2(C)[C@@H](C(=O)Cn4cc(C#N)cn4)CC[C@@H]32)C1 [Compound 1]
- separation from placebo (HAM-D) of the 20 mg dose ([1]; 20 mg once a day for 14 days): did not separate from placebo
- tolerability in the trial ([1]; 20 mg or 30 mg once a day for 14 days): generally well tolerated
- overall incidence of patients who experienced AEs ([1]; 20 mg): 50.0%
- patients who reported SAEs during follow-up ([1]; 20 mg, SAEs related to cocaine ingestion, Day 39): one
- AE incidence: Fatigue ([1]; 20 mg): 1.6%
- AE incidence: Sedation ([1]; 20 mg): 5.9%
- subjects having treatment emergent AEs leading to study drug discontinuation ([1]; 20 mg): 1.6%
- AE incidence: Dizziness ([1]; 20 mg): 7.4%
- AE incidence: Somnolence ([1]; 20 mg): 5.9%
- AE incidence: Nausea ([1]; 20 mg): 5.3%
- AE incidence: Diarrhea ([1]; 20 mg): 5.9%
- AE incidence: Headache ([1]; 20 mg): 11.2%
- onset of effect (HAM-D vs placebo) ([1]; 30 mg (n=166)): beginning at Day 3
- LS Mean Difference from placebo, HAM-D total score, Day 3 ([1]; 30 mg (n=166) vs placebo (n=157), Day 3, p=0.016): −1.6
- AE incidence: Diarrhea ([1]; 30 mg (printed 30 rug)): 6.3%
- reduction in depressive symptoms in the HAM-D total score at Day 15 (primary endpoint) ([1]; 30 mg once a day for 14 days, Day 15, placebo 11.2): 12.6
- LS Mean Difference, HAM-D total score at Day 15, patients with measurable drug concentrations and HAM-D≥24 ([1]; 30 mg vs placebo, post-hoc, p=0.017): −2.6
- LS Mean Difference, HAM-D total score at Day 15, patients with HAM-D≥24 ([1]; 30 mg vs placebo, post-hoc, p=0.032): −2.3
- LS Mean Difference, HAM-D total score at Day 15, patients with measurable drug concentrations ([1]; 30 mg vs placebo, post-hoc, p=0.048): −1.8
- overall incidence of patients who experienced AEs ([1]; 30 mg): 54.2%
- LS Mean Difference from placebo, HAM-D total score, Day 8 ([1]; 30 mg, Day 8, p=0.008): −2.1
- LS Mean Difference from placebo, HAM-D total score, Day 12 ([1]; 30 mg, Day 12, p=0.018): −2.1
- LS Mean Difference from placebo, HAM-D total score, Day 15 ([1]; 30 mg, Day 15, p=0.115): −1.4
- LS Mean Difference from placebo, HAM-D total score, Day 42 ([1]; 30 mg, Day 42, p=0.807): −0.5
- Change from baseline in HAM-D total score at Day 42 ([1]; 30 mg, Day 42, placebo −11.7): −11.9
- AE incidence: Fatigue ([1]; 30 mg): 6.8%
- AE incidence: Sedation ([1]; 30 mg): 4.7%
- subjects having treatment emergent AEs leading to study drug discontinuation ([1]; 30 mg): 2.1%
- AE incidence: Dizziness ([1]; 30 mg): 5.7%
- AE incidence: Somnolence ([1]; 30 mg): 6.8%
- AE incidence: Nausea ([1]; 30 mg): 3.6%
- Change from baseline in HAM-D total score at Day 15, patients with HAM-D≥24 ([1]; 30 mg, post-hoc, n=124, placebo −11.4): −13.7
- Change from baseline in HAM-D total score at Day 15, patients with measurable drug concentrations ([1]; 30 mg, post-hoc, n=151, placebo −11.2): −13.0
- Change from baseline in HAM-D total score at Day 15, patients with measurable drug concentrations and HAM-D≥24 ([1]; 30 mg, post-hoc, placebo −11.4): −14.0
- patients who experienced serious adverse events (SAEs) during treatment ([1]; 30 mg, suicide attempt Day 5, bile duct stone after Day 2): Two
- patients who reported SAEs during follow-up ([1]; 30 mg, syncope and associated injuries, Day 28): one
- AE incidence: Headache ([1]; 30 mg): 6.3%
- durability of improvements in depressive symptoms, double-blind portion ([1]; all treatment groups, through Day 42): sustained in all treatment groups through Day 42
- AEs of loss of consciousness ([1]; any group): no ABs of loss of consciousness
- suicidal ideation or suicidal behavior by Columbia Suicide Severity Rating Scale (C-SSRS) ([1]; compared to baseline): no signal fir increased suicidal ideation or suicidal behavior
- durability of improvement in depressive symptoms, long-term follow-up ([1]; patients who completed long-term follow-up up to 6 months, preliminary data): maintenance of improvement in depressive symptoms
- subjects achieving remission or response at Day 15 (subjects with MDD [2]; Day 15): 78.6%
- subjects with HAM-D≥22 at Day 42 (subjects with MDD [2]; [4]): 6.1%
- subjects with a HAM-D score of 16 to 21 at Day 42 (subjects with MDD [2]; [4]): 18.2%
- efficacy in a Phase 2 study in subjects with MDD (subjects with MDD [3]; 30 mg per day): efficacious
- tolerability in a Phase 2 study in subjects with MDD (subjects with MDD [3]; 30 mg per day): well-tolerated
- adverse effect in previous clinical trials, morning administration (subjects with MDD [3]; administered in the morning): sedation/somnolence observed
- tolerability in previous clinical trials, evening administration (subjects with MDD [3]; given in the evening): improved tolerability
- mode of action at GABAA receptors (GABAA receptors): positive allosteric modulator of GABAA receptors
